The values that follow come from patent US11981686B2, “Urea compound having substituent” (DAIICHI SANKYO COMPANY, LIMITED, priority 2019, dated 2024).

Each structure is given as a SMILES string.

SIRT6 enzyme, sequence (Q8N6T7 whole entry, species assumed): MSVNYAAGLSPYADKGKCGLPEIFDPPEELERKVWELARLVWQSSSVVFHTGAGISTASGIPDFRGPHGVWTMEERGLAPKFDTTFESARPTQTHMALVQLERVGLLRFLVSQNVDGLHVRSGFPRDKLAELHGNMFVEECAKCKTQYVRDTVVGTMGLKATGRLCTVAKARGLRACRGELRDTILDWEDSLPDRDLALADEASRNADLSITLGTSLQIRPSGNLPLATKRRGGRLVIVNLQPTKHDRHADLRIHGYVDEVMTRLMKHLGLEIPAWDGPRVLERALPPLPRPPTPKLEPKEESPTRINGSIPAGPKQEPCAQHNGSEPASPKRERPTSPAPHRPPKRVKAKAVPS

The target of the test is SIRT6 enzyme (Homo sapiens, UniProt Q8N6T7). The experiment in a line: Measurement of deacetylation activity (SIRT6, AlphaLISA, H3K9(Ac) peptide). The test is classed as biochemical. The settings on record: SIRT6 25 ng/mL, H3K9(Ac) biotin peptide 2 nM, NAD 10 μM, room temperature 30 minutes, duplicate. In outline:
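SIRT6 (25 ng/mL final) in Tris-HCl pH 8.0 buffer with compound (e.g. 0.046–100 μM final) reacted with biotin-H3K9(Ac) peptide (2 nM) and NAD+ (10 μM), 30 min, room temperature. Stopped with nicotinamide plus AlphaLISA anti-unmodified H3K9/K27 beads, 60 min; EC150 (150% relative activity) from sigmoidal fit.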
In the case of `COc1ccc2oc(N3CCc4nc(NC(=O)N[C@H](C)CO)sc4C3)nc2c1` [Example 189, N-[(2R)-1-hydroxypropan-2-yl]-N′-[5-(5-methoxy-1,3-benzoxazol-2-yl)-4,5,6,7-tetrahydro[1,3]thiazolo[5,4-c]pyridin-2-yl]urea], the “EC150 (the concentration of the compound showing a relative enzyme activity of 150%)” value stood at 0.38 μm.
`CNC(=O)Nc1nc2c(s1)[C@H]1CN(C(C)=O)C[C@@H](C2)N1c1nc(-c2ccc(F)cc2)no1` (relative stereo) [Example 23, (−)-N-{(4R*,8R*)-6-acetyl-10-[3-(4-fluorophenyl)-1,2,4-oxadiazol-5-yl]-4,5,6,7,8,9-hexahydro-4,8-epimino[1,3]thiazolo[5,4-d]azocin-2-yl}-N′-methylurea]: the “EC150 (the concentration of the compound showing a relative enzyme activity of 150%)” value worked out at 0.19 μm.
For `COc1cccc(-c2cnc(N3[C@@H]4COC[C@H]3c3sc(NC(=O)NC5CCOCC5)nc3C4)o2)n1` [Example 186, N-{(4S,8S)-10-[5-(6-methoxypyridin-2-yl)-1,3-oxazol-2-yl]-4,7,8,9-tetrahydro-5H-4,8-epiminooxocino[5,4-d][1,3]thiazol-2-yl}-N′-oxan-4-ylurea] the value was 0.48 μm; for `C[C@@H](O)CNC(=O)Nc1nc2c(s1)[C@@H]1COC[C@H](C2)N1c1ncc(-c2cccc(C(F)F)c2)o1` [Example 72, N-[(4S,8S)-10-{5-[3-(difluoromethyl)phenyl]-1,3-oxazol-2-yl}-4,7,8,9-tetrahydro-5H-4,8-epiminooxocino[5,4-d][1,3]thiazol-2-yl]-N′-[(2R)-2-hydroxypropyl]urea], 0.36 μm; for `CCOc1ccc2oc(N3[C@@H]4COC[C@H]3c3sc(NC(=O)N[C@H](C)CO)nc3C4)nc2c1` [Example 52, N-[(4S,8S)-10-(5-ethoxy-1,3-benzoxazol-2-yl)-4,7,8,9-tetrahydro-5H-4,8-epiminooxocino[5,4-d][1,3]thiazol-2-yl]-N′-[(2R)-1-hydroxypropan-2-yl]urea], 1.9 μm.
Under `CC(C)(O)CNC(=O)Nc1nc2c(s1)CN(c1nc3cc(S(C)(=O)=O)ccc3o1)C(C)(C)C2` [Example 75, N-(2-hydroxy-2-methylpropyl)-N′-{5-[5-(methanesulfonyl)-1,3-benzoxazol-2-yl]-6,6-dimethyl-4,5,6,7-tetrahydro[1,3]thiazolo[5,4-c]pyridin-2-yl}urea] stands 0.94 μm; under `CC(C)(O)CNC(=O)Nc1nc2c(s1)[C@@H]1COC[C@H](C2)N1c1nc2cc(C(F)F)ccc2o1` [Example 53, N-{(4S,8S)-10-[5-(difluoromethyl)-1,3-benzoxazol-2-yl]-4,7,8,9-tetrahydro-5H-4,8-epiminooxocino[5,4-d][1,3]thiazol-2-yl}-N′-(2-hydroxy-2-methylpropyl)urea], 0.29 μm; under `O=C(Nc1nc2c(s1)[C@@H]1COC[C@H](C2)N1c1nc2cc(OC(F)(F)F)ccc2o1)N[C@H]1C[C@H](O)C1` [Example 54, N-[(1r,3S)-3-hydroxycyclobutyl]-N′-[(4S,8S)-10-(5-trifluoromethoxy-1,3-benzoxazol-2-yl)-4,7,8,9-tetrahydro-5H-4,8-epiminooxocino[5,4-d][1,3]thiazol-2-yl]urea], 0.48 μm.
For `CCOc1cccc(-c2cnc(N3[C@@H]4COC[C@H]3c3sc(NC(=O)N[C@H](C)CO)nc3C4)o2)n1` [Example 68, N-{(4S,8S)-10-[5-(6-ethoxypyridin-2-yl)-1,3-oxazol-2-yl]-4,7,8,9-tetrahydro-5H-4,8-epiminooxocino[5,4-d][1,3]thiazol-2-yl}-N′-[(2R)-1-hydroxypropan-2-yl]urea] the value was 1 μm; for `CNC(=O)Nc1nc2c(s1)C1CN(C(C)=O)CC(C2)N1c1nc2cc(F)ccc2o1` (centres unmarked) [Example 130, N-[6-acetyl-10-(5-fluoro-1,3-benzoxazol-2-yl)-4,5,6,7,8,9-hexahydro-4,8-epimino[1,3]thiazolo[5,4-d]azocin-2-yl]-N′-methylurea], 3.7 μm; for `COc1ccc2oc(N3[C@@H]4COC[C@H]3c3sc(NC(=O)NC(C)(C)CO)nc3C4)nc2c1` [Example 58, N-(1-hydroxy-2-methylpropan-2-yl)-N′-[(4S,8S)-10-(5-methoxy-1,3-benzoxazol-2-yl)-4,7,8,9-tetrahydro-5H-4,8-epiminooxocino[5,4-d][1,3]thiazol-2-yl]urea], 2.4 μm.
`O=C(Nc1nc2c(s1)[C@@H]1COC[C@H](C2)N1c1cc(-c2ccc(F)cc2)on1)N[C@H]1CC[C@H](O)CC1` [Example 159, N-{(4S,8S)-10-[5-(4-fluorophenyl)-1,2-oxazol-3-yl]-4,7,8,9-tetrahydro-5H-4,8-epiminooxocino[5,4-d][1,3]thiazol-2-yl}-N′-[(1r,4r)-4-hydroxycyclohexyl]urea]: the “EC150 (the concentration of the compound showing a relative enzyme activity of 150%)” value is 1.3 μm.
As to `Cc1ccc2oc(N3[C@@H]4COC[C@H]3c3sc(NC(=O)NCC(C)(C)O)nc3C4)nc2c1` [Example 145, N-(2-hydroxy-2-methylpropyl)-N′-[(4S,8S)-10-(5-methyl-1,3-benzoxazol-2-yl)-4,7,8,9-tetrahydro-5H-4,8-epiminooxocino[5,4-d][1,3]thiazol-2-yl]urea], the “EC150 (the concentration of the compound showing a relative enzyme activity of 150%)” value is given as 2.2 μm.
For `C[C@H](CO)NC(=O)Nc1nc2c(s1)CN(c1nc3cc(S(C)(=O)=O)ccc3o1)C(C)(C)C2` [Example 74, N-[(2R)-1-hydroxypropan-2-yl]-N′-{5-[5-(methanesulfonyl)-1,3-benzoxazol-2-yl]-6,6-dimethyl-4,5,6,7-tetrahydro[1,3]thiazolo[5,4-c]pyridin-2-yl}urea] the value was 0.68 μm; for `CCOC(=O)N1CC2Cc3nc(NC(=O)NC)sc3C(C1)N2c1nc(C2(C(F)(F)F)CC2)no1` (centres unmarked) [Example 134, Ethyl 2-[(methylcarbamoyl)amino]-10-{3-[1-(trifluoromethyl)cyclopropyl]-1,2,4-oxadiazol-5-yl}-4,7,8,9-tetrahydro-4,8-epimino[1,3]thiazolo[5,4-d]azocine-6(5H)-carboxylate], 3.5 μm; for `CNC(=O)Nc1nc2c(s1)C1CN(C(C)=O)CC(C2)N1c1ncc(-c2cccc(Cl)c2)o1` (centres unmarked) [Example 139, N-{6-acetyl-10-[5-(3-chlorophenyl)-1,3-oxazol-2-yl]-4,5,6,7,8,9-hexahydro-4,8-epimino[1,3]thiazolo[5,4-d]azocin-2-yl}-N′-methylurea], 0.36 μm.
Under `CNC(=O)Nc1nc2c(s1)C1COCC(C2)N1c1cc(-c2ccc(F)cc2)on1` (centres unmarked) [Example 16, N-{10-[5-(4-fluorophenyl)-1,2-oxazol-3-yl]-4,7,8,9-tetrahydro-5H-4,8-epiminooxocino[5,4-d][1,3]thiazol-2-yl}-N′-methylurea] stands 4.2 μm; under `CNC(=O)Nc1nc2c(s1)C1CN(C(=O)OC)CC(C2)N1c1nc(C2CCC(F)(F)C2)no1` (centres unmarked) [Example 131, Methyl 10-[3-(3,3-difluorocyclopentyl)-1,2,4-oxadiazol-5-yl]-2-[(methylcarbamoyl)amino]-4,7,8,9-tetrahydro-4,8-epimino[1,3]thiazolo[5,4-d]azocin-6(5H)-carboxylate], 1.4 μm; under `CC(=O)N1CC2Cc3nc(NC(=O)N[C@@H]4CCOC4)sc3C(C1)N2c1nc(-c2ccc(F)cc2)no1` (stereo partly drawn) [Example 140, N-{6-acetyl-10-[3-(4-fluorophenyl)-1,2,4-oxadiazol-5-yl]-4,5,6,7,8,9-hexahydro-4,8-epimino[1,3]thiazolo[5,4-d]azocin-2-yl}-N′-[(3R)-oxolan-3-yl]urea], 0.16 μm.
For `C[C@H](CO)NC(=O)Nc1nc2c(s1)CN(c1nc(C3CCCC(F)(F)C3)no1)CC2` (stereo partly drawn) [Example 87, N-{5-[3-(3,3-difluorocyclohexyl)-1,2,4-oxadiazol-5-yl]-4,5,6,7-tetrahydro[1,3]thiazolo[5,4-c]pyridin-2-yl}-N′-[(2R)-1-hydroxypropan-2-yl]urea] the value was 2.1 μm; for `CNC(=O)Nc1nc2c(s1)C1CN(C(C)=O)CC(C2)N1c1nc(-c2cccc(F)c2)no1` (centres unmarked) [Example 138, N-{6-acetyl-10-[3-(3-fluorophenyl)-1,2,4-oxadiazol-5-yl]-4,5,6,7,8,9-hexahydro-4,8-epimino[1,3]thiazolo[5,4-d]azocin-2-yl}-N′-methylurea], 0.46 μm.
Turning to `COc1ccc2oc(N3[C@@H]4COC[C@H]3c3sc(NC(=O)N[C@H](C)CO)nc3C4)nc2c1` [Example 38, N-[(2R)-1-hydroxypropan-2-yl]-N′-[(4S,8S)-10-(5-methoxy-1,3-benzoxazol-2-yl)-4,7,8,9-tetrahydro-5H-4,8-epiminooxocino[5,4-d][1,3]thiazol-2-yl]urea], the “EC150 (the concentration of the compound showing a relative enzyme activity of 150%)” value is 2 μm.
For `CS(=O)(=O)N1CC2Cc3nc(NC(=O)NC4CCOCC4)sc3C(C1)N2c1nc(-c2ccc(F)cc2)no1` (centres unmarked) [Example 30, N-{10-[3-(4-fluorophenyl)-1,2,4-oxadiazol-5-yl]-6-(methanesulfonyl)-4,5,6,7,8,9-hexahydro-4,8-epimino[1,3]thiazolo[5,4-d]azocin-2-yl}-N′-oxan-4-ylurea] the value was 0.18 μm.
